According to patent publication US20220356163A1, “SMALL MOLECULE INHIBITORS OF Id PROTEINS” (MEMORIAL SLOAN KETTERING CANCER CENTER, priority 2019, published 2022):
Like-named read-outs stand apart in the source and are kept apart here.

Key:
[1] = system: 4T1; assay: MTT assay, 4T1; assay type: cell-based; conditions: Mus musculus
Text: (§1) The 4T1 murine mammary tumor cell line and nine breast cancer cell lines representing the major breast cancer subtypes (ER+, HER2+, and TNBC) including MDA-MB-157, MDA-MB-436, MDA-MB-231, MDA-MB-453, MDA-MB-361, BT-474, SK-BR-3, MCF-7 and T47-D will be grown in RPMI or DMEM (Dulbecco's Modified Eagle Medium) media supplemented with 10% FBS (fetal bovine serum), 1% penicillin-streptomycin and 1% L-Glutamine. Patient derived xenograft cell lines BR7, BR11, and IBT will be established directly from breast cancer bone metastases specimens surgically resected from patients with informed consent. BR7 and BR11 specimens will be obtained from ER positive (HER2 negative and PR negative) metastatic breast cancer patients, while the IBT specimen will be obtained from a metastatic, triple negative breast cancer patient. Fresh tumor tissues will be quickly washed with ice cold PBS and minced into about 1-3 mm pieces in MEM medium (without FBS) using sterile razor blades. […] The cells will be treated with either 100 μM DMSO, AGX51, or a compound of the present technology such as AGX-A. The cell morphology and growth will be monitored daily for 1 week by microscopy for changes in morphology or cell death. […] Absorbance will then measured at 570 nm using a plate reader (Synergy 2, BioTek). […]

[2] = system: MDA-MB-157; assay: MTT assay, MDA-MB-157; assay type: cell-based; conditions: Homo sapiens, 24 h, MDA-MB-157, TNBC cell line, read-out: IC50 value after 24 hours of treatment
Text: as §1

[3] = target: E47 (Homo sapiens, UniProt P15923); assay: Circular dichroism (CD) of E47; assay type: binding; conditions: 0, 10, 20 and 50 μM
E47, sequence (P15923 1-651 isoform P15923-2): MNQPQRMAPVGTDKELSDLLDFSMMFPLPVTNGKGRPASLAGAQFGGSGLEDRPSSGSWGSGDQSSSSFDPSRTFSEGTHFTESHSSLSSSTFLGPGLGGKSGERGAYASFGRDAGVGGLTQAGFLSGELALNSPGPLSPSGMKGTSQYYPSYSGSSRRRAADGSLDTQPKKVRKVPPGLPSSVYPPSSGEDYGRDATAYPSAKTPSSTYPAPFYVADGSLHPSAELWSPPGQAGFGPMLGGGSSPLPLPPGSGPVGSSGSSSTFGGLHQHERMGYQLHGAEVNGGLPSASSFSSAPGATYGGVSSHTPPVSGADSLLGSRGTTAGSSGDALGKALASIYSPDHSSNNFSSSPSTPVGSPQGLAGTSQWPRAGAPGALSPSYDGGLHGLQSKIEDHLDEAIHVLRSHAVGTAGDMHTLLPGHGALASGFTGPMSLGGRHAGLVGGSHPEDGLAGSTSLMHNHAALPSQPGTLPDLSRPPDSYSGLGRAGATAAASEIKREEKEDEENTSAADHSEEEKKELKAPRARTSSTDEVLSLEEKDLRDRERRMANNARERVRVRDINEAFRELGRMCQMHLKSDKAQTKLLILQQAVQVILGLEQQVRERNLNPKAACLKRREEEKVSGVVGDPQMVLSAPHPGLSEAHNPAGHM
Method: Circular dichroism. Far UV Circular dichroism (CD) measurements were done on a Jasco J-1500 spectropolarimeter at room temperature using a 0.1 cm cell and a 0.1 mg/mL protein solution in the absence of presence of AGX51, AGX51E1, AGX51E2 or AGX-A. Due to the presence of DMSO in the samples, the lowest wavelength to be scanned is limited.

[4] = system: MCF-7; assay: MTT assay, MCF-7; assay type: cell-based; conditions: Homo sapiens, MCF7, 24 h, MCF-7, ER +ve cell line, read-out: IC50 value after 24 hours of treatment
Text: as §1

[5] = system: PDX-IBT; assay: MTT assay, PDX-IBT; assay type: cell-based; conditions: 24 h, PDX cell line, read-out: IC50 value after 24 hours of treatment
Text: as §1

[6] = 14-day toxicity study, i.p.; assay type: in vivo; conditions: 60 mg/kg bid i.p., 14 days
Method: Toxicity analyses. To assess for toxicity, female athymic nude mice (Envigo), age 6-8 weeks, were dosed i.p. with either a control vehicle (70% DMSO in water) or AGX51 at 60 mg/kg twice daily for 14 consecutive days. Mice were sacrificed 24 hours after the last test administration. Gross and complete necropsy, along with clinical pathology analysis was conducted on all mice. Clinical Chemistry parameters measured were: BUN, Creatine, ALP, ALT, AST, GGT, Bilirubin, Total Protein, Albumin, Globulin, Phosphorus, Glucose, Cholesterol, Phosphorus, Calcium, Sodium, Potassium, Chloride. Hematology parameters measured were: white blood cells (lymphocytes, Monocytes, Eosinophils, Basophils, Neutrophils), red blood cells, Hemoglobin, Hematocrit, MCV, MCH, MCHC, RDW, Platelets. Organs/Tissues analyzed were: Lung, heart, thymus, kidneys, liver, spleen, gall bladder, pancreas, duodenum, jejunum, ileum, cecum, colon, bone marrow, femur, tibia, sternum, brain, eyes, ears, nasal and oral cavities, teeth, mesenteric and tracheal lymph nodes.

[7] = system: T47-D; assay: MTT assay, T47-D; assay type: cell-based; conditions: ER +ve cell line, 24 hours
Text: as §1

[8] = system: DU145 cells; assay: Prostate cancer cell morphology, growth and death; assay type: cell-based
Method: Prostate cancer cell lines DU145 and PC3 (in 10% BCS) will be cultured in Ham's F12 (Gibco, Carlsbad, Calif.) medium containing 10% BCS (Hyclone, Logan, Utah) and appropriate antibiotics (pen/strep, fungizaone, and gentamycin (Invitrogen Inc., Carlsbad, Calif.). All cells will be cultured at 37° C. in a fully humidified atmosphere containing 5% CO2.
At 50% confluence, the cells will be treated with either 100 μM DMSO, AGX51, or a compound of the present technology (such as AGX-A). The cell morphology and growth will be monitored daily for 1 week by microscopy for changes in morphology or cell death. Apoptosis will be determined by measuring caspase 3 and caspase 7 activities using the Caspase-Glo 3/7 Assay system from Promega (Madison, Wis.).

[9] = target: T1, Id3 (Homo sapiens, UniProt Q02535); assay: Knockdown of Id3 in TFK1 cell cultures; assay type: cell-based; conditions: TFK1, FIG. 22
T1 construct: endogenous in cells; host or cells: TFK1
T1 sequence (Q02535 whole entry): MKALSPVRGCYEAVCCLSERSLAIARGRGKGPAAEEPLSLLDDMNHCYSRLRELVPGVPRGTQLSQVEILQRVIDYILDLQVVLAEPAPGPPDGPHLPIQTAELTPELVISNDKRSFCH
Text: Following the methods described herein (see, e.g., Examples 12-13), AGX-A and AGX51 were compared for their ability to mediate Id knockdown in cell cultures. FIG. 21 illustrates side-by-side comparative effects of AGX51 and AGX-A for knockdown of Id1 in TFK1 cell cultures, and FIG. 22 illustrates side-by-side comparative effects of AGX51 and AGX-A for knockdown of Id3 in TFK1 cell cultures.

## CCC(=O)N(CCC(c1ccc2c(c1)OCO2)c1ccccc1OC)Cc1ccccc1 (racemic) [AGX51, N-(3-(benzo[d][1,3]dioxol-5-yl)-3-(2-methoxyphenyl)propyl)-N-benzylpropionamide]
[1]; 24 h, 4T1, MTT, read-out: IC50 value after 24 hours of treatment
  IC50: 26.7 µM
[1]; 4T1 cells, FIG. 7D, read-out: IC50
  IC50: 26.7 µM
[2]
  IC50: 22.3 µM
[3]
  interaction with E47 (CD): no evidence of an interaction
[4]
  IC50: 60 µM
[5]
  IC50: 12 µM
[6]
  clinical chemistry parameters and hematology: within normal limits
  gross necropsy and histopathological evaluation of all major organs: No abnormal findings
  weight loss: no significant weight loss
[7]
  percentage at 60 μM (IC50 NA): NA (60 μM = 65%)
[8]; after six days
  DU145 cell death: lead to cell death
[8]; after three days
  effect on DU145 cells: pronounced effect on DU145 cells

## COc1ccccc1C(CCNCc1ccccc1)c1ccc(OC(C)C)cc1 (stereo not shown) [AGX-A, N-benzyl-3-(4-isopropoxyphenyl)-3-(2-methoxyphenyl)propan-1-anine]
[9]
  Id3 knockdown potency vs AGX51: superior anti-Id1 and anti-Id3 potency compared to AGX51
